We go through one compound from US20240309018A1, “THIAZOLE-LACTAM-SPIROHETEROCYCLIC COMPOUNDS AND APPLICATIONS THEREOF” (D3 BIO (WUXI) CO., LTD, priority 2021, published 2024).

Data set [1] can be described thus: Solid stability test of the crystal form. The class given is physicochemical. Here is the method: The sample was placed at the bottom of an HPLC vial to form a thin layer. The samples were placed in a chamber at a constant temperature and humidity of 60° C./75% RH conditions and in a 92.5% RH desiccator. The bottles were sealed with a sealing film. Some small holes were punched in the sealing film to ensure that the samples were fully in contact with the ambient air. The caps of the sample bottles placed at 60° C. under light and light-shielding conditions (samples under light-shielding conditions were wrapped in tin foil) were tighten.

Data set [2] is described as follows: Hygroscopicity study (DVS). The class given is physicochemical. The following applies: 25° C. and 80% RH. Here is the method: Dynamic vapor adsorption (DVS) curves were collected on DVS Intrinsic plus of Surface Measurement Systems (SMS) company. The relative humidity at 25° C. was corrected with the deliquescent points of LiCl, Mg(NO3)2 and KCl.
[…]

With `Cc1cccc(CN2C(=O)c3nc(-c4nc(Nc5ccnn5C)ncc4C)sc3C23COC3)n1` [crystal form A of WX001], the Crystal form entry in data set [1] (0 day) is “Crystal form A”; in data set [1] (60° C., 5 days), “Crystal form A”; in data set [1] (60° C., 10 days), “Crystal form A”; in data set [1] (60° C./75% RH, 1 month), “Crystal form A”; in data set [1] (60° C./75% RH, 2 months), “Crystal form A”; in data set [1] (60° C./75% RH, 3 months), “Crystal form A”. Also, the Crystal form entry is recorded as “Crystal form A” in data set [1] (92.5% RH, 5 days); “Crystal form A” in data set [1] (92.5% RH, 10 days); “Crystal form A” in data set [1] (Control group of light-shielding, taking points simultaneously with visible light + UV group); “Crystal form A” in data set [1] (Control group of light-shielding, taking points simultaneously with visible light group); “Crystal form A” in data set [1] (Visible light (ICH conditions), reaching illumination of 1.2E+06 Lux · hrs); “Crystal form A” in data set [1] (Visible light + UV (ICH conditions), reaching illumination of 200 W · hrs/m^2). Further, in data set [1] (all conditions of Table 15), the “solid stability, conclusion” value was “good stability”. Further, the hygroscopicity classification entry in data set [2] is on record as “almost no hygroscopicity”. For the same compound, in data set [2] (DVS), the “ΔW, weight increase by moisture absorption” value is 0.1134%.
